# In US20240024466A1, “LIPIDOID COMPOSITIONS AND METHODS OF USE THEREOF” (Trustees of Tufts College, priority 2020, published 2024):
# Key:
# [1] = test system: STING pathway; assay: In vivo ifnb1 and cxcl10 gene expression in tumors by RT PCR; set-up: species or system C57BL/6 mice; details: intratumoral, one day after DOX injection, 6 h post second injection
# [2] = test system: B16F10 tumors; assay: Immunocellular composition of the tumor microenvironment (flow cytometry); details: 48 h after the second injection
# Procedure: To further evaluate the changes of the cellular composition after the treatment, the tumors were collected at 48 h after the second injection. The tumors were dissociated to single cells, stained with antibodies, and analyzed by the flowcytometry (FIG. 11).
# After 48 h post the second injection, the tumors were collected and suspended to single cell solutions by 40 μm strainer (Thermo-Fisher). The cells were collected, washed with PBS, and stained with fluorescent antibodies of CD4 (APC-Cy7), CD8a (PE-Cy5), CD45 (PE), CD3e (FITC), F4/80 (APC), and CD11c (APC) in Flow Cytometry Staining Buffer (eBioscience). Fluorescent signal was measured using LSR-II flow cytometer (BD Biosciences). The data was analyzed by FlowJo-v10.
# [3] = test system: B16F10 tumor; assay: Treatment of B16F10 tumor by in situ vaccination; type: in vivo, C57BL/6 mice; details: DOX day 0, second and third injection day 1 and 5, intratumoral
# [4] = test system: STING pathway; assay: In vitro ifnb1 and cxcl10 gene expression by RT PCR; type: cell-based; details: RAW264.7, 150 nM cGAMP, 4 h
# [5] = test system: STING pathway; assay: as above; type: cell-based; details: DC2.4, 150 nM cGAMP, 4 h
# [6] = test system: draining lymph nodes; assay: In vivo mRNA delivery, luciferase mRNA expression in draining lymph nodes; details: adjuvant incorporated into the LNP
# [7] = test system: dengue virus; assay: nAb response to a protein-based dengue virus vaccine with TLR ligands; details: in vivo
# Source text: The two TLR ligands individually will be produced and in combination into mRNA-LNPs and test if they enhance nAb response and reduce antibody-dependent enhancement. The mechanisms underlying the enhanced nAb response will be investigated for further adjuvant optimization.
# [8] = test system: C57BL/6 mice; assay: OVA prime-boost immunization with LNP formulations, antibody response by ELISA; details: rough library screening, OVA formulated with LNPs, injections at day 1 and day 14, FIG. 7B
# [9] = test system: BALB/c mice; details: s.c., IVIS 5 h after second injection
molecule,measurement,setting,value
"COc1cccc2c1C(=O)c1c(O)c3c(c(O)c1C2=O)C[C@@](O)(C(=O)CO)C[C@@H]3O[C@H]1C[C@H](N)[C@H](O)[C@H](C)O1 [DOX, doxorubicin]",expression of ifnb1 and cxcl10 genes in B16F10 tumors,[1],did not changed significantly
same,population of CD4+ and CD8+ T cells at tumor sites,[2],did not make significant changes
same,tumor growth inhibition (tumor volumes),[3],slight inhibition
"Nc1nc2c(ncn2[C@@H]2O[C@@H]3COP(=O)(O)O[C@H]4[C@@H](O)[C@H](n5cnc6c(N)ncnc65)O[C@@H]4COP(=O)(O)O[C@@H]2[C@@H]3O)c(=O)[nH]1 [cGAMP, 2′5′-3′5′ cyclic guanosine monophosphate-adenosine monophosphate]",expression of ifnb1 and cxcl10 genes in B16F10 tumors,[1],modest increase
same,population of CD4+ and CD8+ T cells at tumor sites,[2],increasement
same,expression of ifnb1 gene compared with PBS-treated cells,[4],modest increase
same,expression of ifnb1 gene compared with PBS-treated cells,[5],modest increase
Pam3CSK4,expression of luciferase mRNA in draining lymph nodes,[6],increased
same,nAb responses to a protein-based dengue virus vaccine,[7],dramatically augment
lipopolysaccharide [LPS],IgG1 antibody response,[8],extremely positive
poly I:C,nAb responses to a protein-based dengue virus vaccine,[7],dramatically augment
"ovalbumin (protein, UniProt P01012 2-386, looked up) Ovalbumin: GSIGAASMEFCFDVFKELKVHHANENIFYCPIAIMSALAMVYLGAKDSTRTQINKVVRFDKLPGFGDSIEAQCGTSVNVHSSLRDILNQITKPNDVYSFSLASRLYAEERYPILPEYLQCVKELYRGGLEPINFQTAADQARELINSWVESQTNGIIRNVLQPSSVDSQTAMVLVNAIVFKGLWEKAFKDEDTQAMPFRVTEQESKPVQMMYQIGLFRVASMASEKMKILELPFASGTMSMLVLLPDEVSGLEQLESIINFEKLTEWTSSNVMEERKIKVYLPRMKMEEKYNLTSVLMAMGITDVFSSSANLSGISSAESLKISQAVHAAHAEINEAGREVVGSAEAGVDAASVSEEFRADHPFLFCIKHIATNAVLFFGRCVSP",IgG1 antibody response,[8],very low antibody response
"OVA^Alexa-647: Alexa Fluor 647-conjugated OVA, model antigen (protein, UniProt P01012 2-386, looked up, Alexa Fluor 647 label) Ovalbumin: GSIGAASMEFCFDVFKELKVHHANENIFYCPIAIMSALAMVYLGAKDSTRTQINKVVRFDKLPGFGDSIEAQCGTSVNVHSSLRDILNQITKPNDVYSFSLASRLYAEERYPILPEYLQCVKELYRGGLEPINFQTAADQARELINSWVESQTNGIIRNVLQPSSVDSQTAMVLVNAIVFKGLWEKAFKDEDTQAMPFRVTEQESKPVQMMYQIGLFRVASMASEKMKILELPFASGTMSMLVLLPDEVSGLEQLESIINFEKLTEWTSSNVMEERKIKVYLPRMKMEEKYNLTSVLMAMGITDVFSSSANLSGISSAESLKISQAVHAAHAEINEAGREVVGSAEAGVDAASVSEEFRADHPFLFCIKHIATNAVLFFGRCVSP",distribution of OVA^Alexa-647 fluorescence signal,[9],mainly distributed in bladder
